Among the data in US7973056B2, “Triazole derivative or salt thereof” (Fujifilm Finechemicals Co., Ltd, priority 2008, dated 2011) are MIC values, retold here.

Common to all, as to assay: Antifungal activity test (in vitro), MIC
Holding throughout (assay type): cell-based

The test system of test [1] is Aspergillus fumigatus ATCC 1028. The following applies: ATCC1028.
Test [2] deals with Microsporum canis ATCC 36299. The following applies: ATCC36299.
In test [3] the test system is Trichophyton mentagrophytes ATCC 9533. Particulars: ATCC9533.

The structures appear in SMILES notation. In brackets after ≈: the same amount, converted by molar mass.

For `C[C@@H](N1CCC(c2ccccn2)CC1)[C@](O)(Cn1cncn1)c1ccc(F)cc1F` [I-1, (2R,3R)-2-(2,4-difluorophenyl)-3-(4-pyridin-2-ylpiperidin-1-yl)-1-(1,2,4-triazol-1-yl)butan-2-ol], the figures for the MIC in test [1], in test [2] and in test [3] were 10 µg/mL (≈ 24.2 µM), 0.3 µg/mL (≈ 0.726 µM) and 0.3 µg/mL (≈ 0.726 µM), respectively.
Regarding `C[C@@H](N1CC=C(c2ccccn2)CC1)[C@](O)(Cn1cncn1)c1ccc(F)cc1F` [I-3, (2R,3R)-2-(2,4-difluorophenyl)-3-(3′,6′-dihydro-2,4′-bipyridin-1′(2′H)-yl)-1-(1,2,4-triazol-1-yl)butan-2-ol], the MIC (as a rule, the smallest concentration in the dilution series that meets the test's criterion for growth inhibition) was found to be 1 µg/mL (≈ 2.43 µM) in test [1], 0.03 µg/mL (≈ 0.0729 µM) in test [2] and 0.1 µg/mL (≈ 0.243 µM) in test [3].
Take `C[C@@H](N1CC=C(c2ccc(Cl)cn2)CC1)[C@](O)(Cn1cncn1)c1ccc(F)cc1F` [I-6, (2R,3R)-3-(5-chloro-3′,6′-dihydro-2,4′-bipyridin-1′(2′H)-yl)-2-(2,4-difluorophenyl)-1-(1,2,4-triazol-1-yl)butan-2-ol]: the MIC was determined as 1 µg/mL (≈ 2.24 µM) in test [1], 0.3 µg/mL (≈ 0.673 µM) in test [2] and 0.1 µg/mL (≈ 0.224 µM) in test [3].
